Read-outs that look alike come from different tables or passages of the source.
Experiments:
[1] = tested on: human placental vein discs; assay: Human placental vein angiogenesis model (HPVAM): initiation and angiogenic index; assay type: cell-based; conditions: for inhibition at 0.01 % strength: 0.01% w/v
Source text: The Human Placental Vein Angiogenesis Model: Discarded human placentas were obtained anonymously with prior approval of an Institutional Review Board. The placental veins were dissected free from the placenta and adventitial tissue. The trimmed vein segment was opened longitudinally to produce a flat film of venous tissue of full thickness. Vein discs (2 mm diameter) were created with a sterile skin punch (Miltex Instrument Company, Inc.; Lake Success, N.Y.). The discs were placed into wells of a standard 96-well plate (Corning Inc., Corning, N.Y.). The vein disc harvest was completed within three hours of delivery to optimize endothelial cell viability. Vein discs from a single placenta were distributed equally among all treatment groups to ensure randomization. Each well was preloaded with a human thrombin solution (0.05 IU in 2.0 μl), and allowed to evaporate to dryness before use. All chemicals were purchased from Sigma Chemical Company (St. Louis, Mo.) unless otherwise indicated.
Following the placement of the 2 mm vein disc in the bottom of each thrombin-containing well, the disc was covered with 100 μl of a clot-forming medium, comprising 3 mg/ml fibrinogen and 0.5% Σ-amino caproic acid dissolved in Human Placental Vein Angiogenesis Media (HPVAM). HPVAM is made of Medium 199 (Vitrogen Corporation, Carlsbad, Calif.), an antibiotic/antimycotic solution (100 U/ml penicillin, 100 U/ml streptomycin sulfate, and 0.25 μg/ml amphotericin(3; Vitrogen Corporation), and endothelial growth medium (25%) (Vitrogen Corporation). The mixture was allowed to clot by incubating in 5% CO2, 95% air at 37° C. in a humidified incubator. After the medium-containing placental discs had clotted, the vein-containing clot was supplemented with 100 μl HPVAM containing 20% fetal bovine serum (Vitrogen Corporation). The total well volume was 200 μl.
Evaluation of Angiogenesis: Visual evaluation of all wells was performed at 20× or 40× magnification with a standardized reference grid by an unbiased observer using an inverted microscope. Every other day, discs were graded using two criteria: the initiation of sprouting vessels (initiation) and the degree of sprouting (angiogenic index). Initiation of an angiogenic response was defined as the development of three or more vessel sprouts around the periphery of the vein disc. Initiation occurred in 50-95% of the wells, usually 4 to 6 days after establishment of the clots. Initiation was expressed as the percent of the total wells plated that indicated an angiogenic response.
The angiogenic index (AI) was defined using a subjective visual rating system. Each disc was visually rated for the development of vessel sprouting in each of four quadrants. Each of the four quadrants for each disc was rated on a 0-4 scale, depending on the number of sprouts (density) and the length of sprouts. Scores for all four quadrants were summed to express the AI, a numerical rating that could range from 0 to 16. A score of zero indicated no vessel growth in any of the four quadrants, while a score of 16 indicated long, dense angiogenic vessel growth in all four quadrants. For most experiments, the AI was expressed as a mean plus/minus a standard error of the mean.
To separate the process of initiation from that of proliferation, the AI was analyzed both with zero AI data points and without zero AI data points. […] This lack of initiation could have been due either to the effect of the experimental compound, to the insensitivity of the vein disc to stimulation in the culture conditions, or to the vein disc not being viable. In previous experiments, we have shown that only a small percent, about 2 to 3%, of vein discs are not viable (data not shown). Thus, a graph of AI with zero AI data points indicates the complete angiogenic response of initiation and growth under the experimental conditions. However, a graph of AI without the zero AI data points indicates only growth of the vessels after initiation. […]

human fat tissue = assay: Human fat tissue angiogenesis assay; assay type: cell-based; conditions: 0.01 M and 0.001 M, data not shown
Method: To test the angiogenic activity of plant extracts in another tissue, the refined fraction PUG100 was tested for its anti-angiogenic activity in human fat tissue taken from patients having gastric bypass surgery (Vista Surgical Hospital, Baton Rouge, La.). The human fat tissue assay was conducted very similar to that described in Example 1 for human placental vein tissue. […] (FIG. 25a). Immediately after the addition of the refined fraction PUG100, angiogenic vessel growth started to diverge. The control wells continued their growth, but the PUG100 treated wells stopped further growth. […] (Data not shown).

[2] = 5% gallic acid, oral, 13 wks; cited from earlier work
[3] = Homo sapiens, 336 h, 14 days in culture, FIG. 12a, read-out: inhibition of angiogenic initiation compared to the control
[4] = Homo sapiens, FIG. 12b, read-out: inhibition of angiogenesis compared with the control (mean AI with the zero points)
[5] = Homo sapiens, FIG. 12b, read-out: inhibition of angiogenic growth compared with the control (mean AI without the zero points)
[6] = highest concentration tested (2×10^−2M; octyl gallate 2×10^−3 M), FIG. 13a

SMILES | inhibition at 0.01 % strength [1, 3] | inhibition at 0.01 % strength [1, 4] | inhibition at 0.01 % strength [1, 5] | initiation of angiogenesis [1, 6] | other results
CCCCOC(=O)c1cc(O)c(O)c(O)c1 [butyl gallate] | 85% | 96% | 74% | totally blocked | 
COC(=O)c1cc(O)c(O)c(O)c1 [methyl gallate] | 38% | 71% | 52% |  | 
O=C(OC[C@H]1O[C@@H](OC(=O)c2cc(O)c(O)c(OC(=O)c3cc(O)c(O)c(O)c3)c2)[C@H](OC(=O)c2cc(O)c(O)c(OC(=O)c3cc(O)c(O)c(O)c3)c2)[C@@H](OC(=O)c2cc(O)c(O)c(OC(=O)c3cc(O)c(O)c(O)c3)c2)[C@@H]1OC(=O)c1cc(O)c(O)c(OC(=O)c2cc(O)c(O)c(O)c2)c1)c1cc(O)c(O)c(OC(=O)c2cc(O)c(O)c(O)c2)c1 [tannic acid, Tannic acid] |  |  |  |  | initiation of angiogenesis ([1]; 0.1% in HPVAM, FIG. 8a): inhibited the initiation of angiogenesis even better than the positive heparin-steroid control
CCCCCCCCOC(=O)c1cc(O)c(O)c(O)c1 [octyl gallate] | 85% | 97% | 83% | totally blocked | lowest concentration indicating inhibition of angiogenesis [1]: 200 µM; initiation of angiogenesis ([1]; 2×10^−4 M, FIG. 13a): totally blocked; mean AI with the zero points included (initiation and proliferation) ([1]; 2×10^−4 M, FIG. 13b): effective
O=C(O)c1cc(O)c(O)c(O)c1 [gallic acid, 3,4,5-trihydroxy benzoic acid] |  |  |  | totally blocked | initiation of angiogenesis ([1]; 0.025%, added after six days, FIG. 5a): totally inhibited; initiation of angiogenesis ([1]; 10^−3 M, FIG. 6a): totally inhibited; mean AI with the zero points included (initiation and proliferation) ([1]; 10^−3 M, FIG. 6b): totally inhibited angiogenesis; Percent initiation ([1]; 10^−4 M, FIG. 6a): 56%; Percent initiation ([1]; 10^−5 M, FIG. 6a): 50%; concentrations at which the inhibitory effect stopped (mean AI with zero points) ([1]; FIG. 6b): ≤ 10^−6 M; concentrations that showed inhibition (mean AI without the zero points, proliferation only) ([1]; FIG. 6c): greater than 10^−4 M; inhibition at 25 µM ([1]; Homo sapiens, read-out: estimated inhibition (IC19) if gallic acid were the only active compound, 2.5×10^−5 M): 19%; Percent initiation ([1]; up to 10^−10 M, FIG. 6a): 33%; initiation of angiogenesis (human fat tissue): inhibited initiation of angiogenesis; body weight gain [2]: suppress body weight gain
CCCOC(=O)c1cc(O)c(O)c(O)c1 [propyl gallate] | 46% | 61% | 28% |  | 
